From ChEMBL document CHEMBL1671711, “Serum and cerebrospinal fluid levels of colistin in pediatric patients” (Antimicrob Agents Chemother, 2010)
In brackets after ≈: the same amount, converted by molar mass.

Test system: Acinetobacter baumannii
Test: Antimicrobial activity against Acinetobacter baumannii
Format: functional

## C[C@@H](O)[C@H]1C(=O)N2C(C(=O)O)=C(S[C@@H]3CN[C@H](C(=O)N(C)C)C3)[C@H](C)[C@H]12 [MEROPENEM]
  MIC: 8 µg/mL (≈ 20.9 µM)
